“And” between values parts separate entries of the source, which are not always exact repeats. Equal values may be shown once.

Data set [1] has as its system arachidonic acid (AA) induced ear edema. The experiment in a line: Arachidonic acid (AA) induced ear edema model. The data set is classed as in vivo, mice. As to conditions: 10 μg one single s.c. injection 20 minutes before AA; compared to PBS control. How it is done: A stock solution of AA was prepared by diluting AA in acetone, 4 mg/10 μL, and was stored frozen at −80° C. A final working solution, 1 mg/10 μL, in acetone was prepared. The working solution was used within one hour after preparation.
Both outer ears of a non-anesthetized mouse were washed with mild soap (Palmolive, Sweden) using a soft tooth brush, the ears were dried with tissue and cleaned with tissue soaked with acetone. After allowing the acetone to evaporate, TPA or AA was applied on both sides, 10 μL, on each side of the ear with care to cover the whole ear. The mouse was held for 20 seconds to allow the solvent to evaporate.
The ears of non-anesthetized mice were measured at different time points for up to 96 hours after the TPA was administered, or up to 24 hours for the AA model. The first measurements were done before the edema was induced. The thickness was recorded with a spring loaded dial micrometer (Limit, Thickness Gauge, accuracy 0.01 mm, contact area Ø6 mm, Luna AB, Allingsås, Sweden) in triplicates at all time points per ear.
The average thickness for both ears on a mouse was calculated and compared to the average thickness of the ears at the starting time point. The value obtained at the start of the experiment was set as 100%. The peak values and area under the curve (AUC) values for the treatment groups were calculated and compared to the inflamed control group, treated with PBS (set as 100%), and expressed as a percentage change (Δ% AUC).
Area under the curve (AUC) with base line set as 100 was calculated using GraphPad Prism version 4.03 for Windows (GraphPad Software, San Diego Calif. USA, www.graphpad.com).
In addition to the experiments done with the control compounds and IDX0001, all other test compounds were investigated in a similar fashion in the TPA and/or AA ear edema models, where the test compounds were given subcutaneously (10 μg) 20 minutes before induction of edema. The results were expressed as reduction of peak value and reduction of area under curve (AUC) in Table 5.

Data set [2] has as its system thioglycolate induced pleurisy. The data set is described as follows: Thioglycolate induced pleurisy. The data set is classed as in vivo, C57/Bl6 mice. As to conditions: 50 μg/mouse i.p. 20 min before induction of pleurisy. How it is done: Mice were anesthetized by an intraperitoneal injection of 0.15-0.20 ml of a mixture of ketamine (Ketalar® Parke-Davis; 25 mg/ml) and xylazine (Narcoxyl Vet.® Veterinaria AG; 5 mg/ml).
The left jugular vein was cannulated with polyethylene tubing (PE10) for intravenous administration (i.v.). A skin incision was made on the right side of the chest. Following dissection of the underlying muscle, pleurisy (inflammation of the lung sack) was induced by a single intrapleural injection of 100 μl of thioglycolate (Sigma). Sterile PBS was used as negative control.
FITC-conjugated dextran in PBS (100 μl, 30 mg/ml) was injected i.v. After 4 h, the animals were euthanized with an overdose of anaesthesia, the chest was carefully opened and the exudate was removed by aspiration and the volume noted. The thorax was then rinsed with 1 ml of ice-cold 3 mM EDTA in PBS. Exudate which was contaminated with red blood cells was discarded.
The exudate and rinsed material was centrifuged at 1500 g for 5 min and the supernatant was used for measurement of fluorescence intensity in a fluorometer (Fluoroskan Acsent, LabSystems) and clearance volume of FITC-dextran was calculated. […]
Cells from the exudate were stained with neutrophil and macrophage specific antibodies and were analyzed by flow cytometry (FACSort and CellQuest software, BD). […]

For the substance “G*G*A*ACAGTTCGTCCAT*G*G*C (phosphorothioate linkages, as printed in the source, key not given here) [IDX0150, oligonucleotide used as control; * = phosphorothioate modification]”, the “AUC reduction (%) AA” value in data set [1] is recorded as −89.4%. In addition, the “reduction of number of PMN in pleural exudates” value in data set [2] (compared to inflamed mice (PBS)) is 42% and 40.9%. In addition, the “reduction in clearance volume of pleural edema (vascular permeability)” value in data set [2] (compared to thioglycolate treatment) is 68.2% and 69.2%.
